Results reported in US7157449B2, “Medicament for the treatment of diseases caused by parasitic protozoa” (priority 2000, dated 2007).
pIC50: −log10 of the molar value. “Also recorded” adds a separate entry of the source.

Columns and labels:
T. brucei [1] = assay: Effect of drugs on trypanosome proliferation; type: cell-based; conditions: for effect on trypanosome proliferation: DON 1, 5 μM, acivicin 1, 5, 25 μM, CPEC 250 μM, azaserine data not shown; for rescue of trypanosomes from the proliferation block asserted by DON: cytidine up to 5 mM or cytosine 1 mM
Method: In A), the trypanosomes were treated with no drug (squares), 1 μM DON (triangles) or 5 μM DON (diamonds). In (B), the trypanosomes were treated with no drug (filled squares), 1 μM acivicin (triangles), 5 μM acivicin (diamonds) or 25 μM acivicin (open squares). The number of trypanosomes was counted at various time-points after the drug exposure had started. It appears that DON and acivicin were both very active.
The trypanosomes were treated with DON for 1 h and then harvested and resuspended in drug-free medium. The number of trypanosomes was counted at various time-points after the release had started (triangles). A control experiment was performed where the trypanosomes were not exposed to DON but otherwise were treated exactly the same way as the drug-treated trypanosomes (squares). Each point is an average of two experiments with the standard deviation indicated by error bars.
(§1) Procyclic insect forms of T. brucei brucei AnTat 1.1 were cultured in SDM-79 medium (Brun, R. and Schoenenberger, M. (1979) Acta Trop. 36, 289–292) supplemented with 10% heat-inactivated fetal bovine serum at 27° C. Culture-adapted bloodstream forms of the T. brucei brucei cell line TC221 (Hirumi, H., Hirumi, K., Doyle, J. J. and Cross, G. A. M. (1980) Parasitology 80, 371–382) were propagated in Hirumi's modified Iscove's medium-9 (Hirumi, H. and Hirumi, K. (1989) J. Parasitology 75, 985–989) supplemented with 5% fetal bovine serum at 37° C. in a humidified atmosphere containing 7% CO2. The cultured parasites were harvested in the late logarithmic growth phase.
(§2) 6-diazo-5-oxo-L-norleucine (DON), acivicin and azaserine were bought from Sigma. They were dissolved in water and stored as 5 mM solutions at −20° C. Cyclopentenyl cytosine was a kind gift from Grant McClarty at the Dept. of Medical Microbiology, University of Manitoba, 730 William Ave, Winnipeg, Manitoba R3E OW3, Canada. It was stored as a 50 mM solution in dimethyl sulfoxide (DMSO) at 4° C. The final concentration of DMSO in the growth media of the trypanosomes never became more than 0.5% and that had no effect on the NTP pools or the proliferation of the parasites.
DON is not stable in the bloodstream and has a half-life of only a few hours in humans (Kovach, J. S., Eagan, R. T., Pawis, G., Rubin, J., Creagan, E. T. and Moertel. C. G. (1981) Cancer Treat. Rep. 65, 1031–1036; Rahman, A., Luc, V., Smith, F. P., Vrown, J., Schein, P. S. and Woolley, P. V. (1981); and Sullivan, M. P., Nelson, J. A., Feldman, S. and Nguyen, B. V. (1988) Cancer Chemother. Pharmac. 21, 78–84). Therefore, it was tested for how long the effect of a short pulse of DON lasts on trypanosome proliferation. In FIG. 5, the trypanosomes have been treated with 5 μM DON for 1 h. After the incubation, the trypanosomes were collected by centrifugation, the pellet was washed with media not containing DON and resuspended in the same media and the trypanosomes were put back into the incubator. The amount of trypanosomes was continuously recorded during the incubation. Control trypanosomes were treated the same way except that the one-hour incubation was without DON.

T. brucei [2] = assay: NTP (CTP) pools in trypanosomes after treatment with CTP synthetase inhibitors; type: cell-based; conditions: for effect on the CTP pool: 1 h incubation, 25 and 100 μM DON, 100 μM acivicin, 25 μM CPEC; for size of the CTP pool after addition of cytidine or cytosine: up to 15 mM cytidine or 1 mM cytosine, harvested one hour later
Method: Samples without drug (control), with 25 and 100 μM DON (DON25 and DON100, respectively), with 100 μM acivicin (Aci100) and with 25 μM CPEC (CPEC25) are shown. The unit of the ordinata is the same as in FIG. 1. The control is an average of two experiments while the others are single measurements.
as §1
1–3×10^8 trypanosomes were collected and subsequently disintegrated by 500 μl ice-cold 0,6 M trichloroacetic acid supplemented with 15 mM MgCl2. The trichloroacetic acid was removed by two extractions with 720 μl 1,1,2-trichlorotrifluoroethan (78%)/trioctylamine (22%) and the aqueous phase was saved. ⅕ of the sample was evaporated to dryness in a Speedvac (Savant), loaded onto a 4.6×125 mm Partisphere SAX-column and run by HPLC in 0,5 M ammonium phosphate pH 3,4 containing 2,5% acetonitrile at 1.5 ml/min. The procedure is further explained in previous work by the present inventors, see Hofer, A., Ekanem, J. T. and Thelander, L. (1998) J. Biol. Chem. 273, 34098–34104. A connection of the HPLC to a Flow Scintillation Analyzer (Radiomatic 150 TR, Packard) made it possible to check the radioactivity in the chromatographic peaks. For radioactivity measurements, the whole sample was usually loaded onto the column. The nucleotides were quantified by measuring the peak heights and comparing them to a standard curve.
as §2
The absolute dependence on de novo synthesis for CTP production might be exploited for chemotherapy purposes since the host can be rescued by cytidine. There are two major classes of compounds that inhibit CTP synthetase, nucleoside analogues and glutamine analogues. One nucleoside analogue, cyclopentenyl cytosine (CPEC), and two glutamine analogues, 6-diazo-5-oxo-L-norleucin (DON) and acivicin, were tested and it was observed how the CTP pool changed during the one-hour incubation period (FIG. 3). […] Next, the effect of the drugs on trypanosome growth was investigated. […] As expected. CPEC (250 μM) had no effect in this experiment either (data not shown).

[3] = human bloodstream; cited from earlier work
mouse BALB/c fibroblasts = assay: Proliferation of BALB/c fibroblasts with DON with or without hypoxanthine; type: cell-based
Method: The fibroblasts were seeded at a density so low that they could not get confluent within three days. […] At this point the amount of cells was indirectly counted by a method described in the section “Material and methods” below.
Mouse Balb/c fibroblasts were cultivated as monolayers in Dulbecco's Modified Eagles Medium (Sigma) supplemented with L-glutamine (0.584 g/l) and 10% heat-inactivated horse serum at 37° C. in a humidified atmosphere containing 7% CO2. The amount of fibroblasts on each plate was determined by a method were the cell-containing plates were washed with PBS pH 7.5, the cells disintegrated by a 10 min. incubation with 0.2 M NaOH at 50° C. and then the OD260-310 was measured (Suttle, D. P. and Stark, G. R. (1979) J. Biol. Chem. 254, 4602–4607). The cells were collected before confluence.
The effect of DON on trypanosomes and mammalian cells was compared as follows. […] Thus, it needed to be investigated whether or not the anti-proliferation effect on mammalian cells could be abolished, while still keeping the trypanocidal activity. In mammalian cells, DON is a powerful inhibitor of de novo purine biosynthesis. In FIG. 6, two experiments are included wherein the block on de novo purine biosynthesis have been by-passed by 10 and 160 μM hypoxanthine, respectively. Hypoxanthine is a naturally occurring purine base in the bloodstream of mammals.

[4] = test system: Trypanosoma brucei rhodiense; assay: IC50 against parasite (Swiss Tropical Institute standard method); type: cell-based
From the text: (§3) In order to determine in what range DON is effective against Plasmodium falciparum, the cause of malaria, Swiss Tropical Institute (Socinstrasse 57, P.O. Box, CH, 4002 Basel, Switzerland) performed the present experiment according to their standard methods available as a commercial service provided under secrecy (for an exact disclosure of the method, reference is made to Swiss Tropical Institute). Further, the present experiment enables a comparison between the effect of DON on both Trypanosoma brucei rhodiense and Plasmodium falciparum.

Plasmodium falciparum = assay: as above; type: cell-based
From the text: as §3

[5] = in vivo; cited from earlier work

## N[C@H](C(=O)O)[C@@H]1CC(Cl)=NO1 [acivicin]
T. brucei [1]
  effect on trypanosome proliferation: very active
T. brucei [2]; 1 h incubation with acivicin, not shown in the figure
  GTP pool reduced by: 50%
T. brucei [2]
  effect on the CTP pool: lowered the CTP pool

## [N-]=[N+]=CC(=O)OC[C@H](N)C(=O)O [Azaserine, azaserine]
T. brucei [1]
  effect on trypanosome proliferation: had no effect

## [N-]=[N+]=CC(=O)CC[C@H](N)C(=O)O [DON, 6-diazo-5-oxo-L-norleucine]
T. brucei [1]
  effect on trypanosome proliferation: very active
T. brucei [1]; cultured trypanosomes, 160 μM hypoxanthine in medium
  concentration that completely blocked trypanosome proliferation: 1 µM
[3]
  half-life: a few hours
T. brucei [2]
  effect on the CTP pool: selectively lowered the CTP level; also recorded: lowered the CTP pool
T. brucei [2]; DON-treated T. brucei
  effect on the UTP, ATP or GTP (purine NTP) levels: without affecting the UTP, ATP or GTP levels; also recorded: did not alter the purine NTP pools
Mouse BALB/c fibroblasts; in the presence of 160 μM hypoxanthine
  DON concentration needed to inhibit proliferation relative to without hypoxanthine: around 20 times
Mouse BALB/c fibroblasts; with 10 μM hypoxanthine (consumed during the experiment)
  antiproliferative effect of DON: still high
Mouse BALB/c fibroblasts; with addition of hypoxanthine
  DON concentration needed for a proliferation block: more than 20 μM
Mouse BALB/c fibroblasts; without purines (hypoxanthine) in the culture medium, 72 h
  DON concentration for maximal inhibition / total block of proliferation: 1 to 2 µM
[4]
  pIC50: 6.37
Plasmodium falciparum; KI isolate
  pIC50: 6.28
Plasmodium falciparum; NF54 isolate
  pIC50: 6.44

## O=c1[nH]cnc2nc[nH]c12 [Hypoxanthine, hypoxanthine]
[5]
  crossing of the blood-brain barrier: known to cross the blood-brain barrier

## Nc1ccn([C@@H]2O[C@H](CO)[C@@H](O)[C@H]2O)c(=O)n1 [Cytidine, cytidine]
T. brucei [1]
  rescue of trypanosomes from the proliferation block asserted by DON: could not rescue
T. brucei [2]
  size of the CTP pool after addition of cytidine or cytosine: no change
Mouse BALB/c fibroblasts; cytidine added instead of hypoxanthine
  effect on the DON concentration needed for a proliferation block: had no such effect

## Nc1cc[nH]c(=O)n1 [cytosine]
T. brucei [1]
  rescue of trypanosomes from the proliferation block asserted by DON: could not rescue
T. brucei [2]
  size of the CTP pool after addition of cytidine or cytosine: no change
